This note sets out measurements from ChEMBL document CHEMBL5608181, “Discovery of indazole inhibitors for heat shock protein 90 as anti-cancer agents” (Eur J Med Chem, 2024).

Molecules are shown by their SMILES. Active and inactive are the calls of the source. The calls are words filed in the database; no cut-off is given here.

One series relates to BT-474. Put plainly: Antiproliferative activity against human BT-474 cells assessed as inhibition of cell viability at 10 uM measured after 72 hrs by CellTiter 96 Aqueous One Solution Cell Proliferation Assay. It is filed as functional, cell-based.
The test system of the next series is HEK293. Briefly: Cytotoxicity against HEK293 cells assessed as reduction in cell viability at 10 uM measured after 72 hrs by CellTiter 96 Aqueous One Solution Cell Proliferation Assay. It is filed as toxicity, cell-based. The settings on record: human, hek293, 72 h.
Another series relates to JIMT-1. Briefly: Antiproliferative activity against human JIMT-1 cells assessed as inhibition of cell viability at 10 uM measured after 72 hrs by CellTiter 96 Aqueous One Solution Cell Proliferation Assay. It is filed as functional, cell-based.

For the compound `COCCn1cc(NC(=O)c2ccc3c(c2OC)C=CC(C)(C)O3)c2cncnc21`, the outcome in the series on BT-474 and in the series with JIMT-1 was Active. In the series on HEK293, the Activity result is given as “Toxic”.
